From ChEMBL document CHEMBL1152029 (1997)
Active and inactive are the calls of the source. The rule behind the calls is not given here.

Experiments:
V79 [1] = experiment: The cytotoxicity in vitro against Chinese hamster V-79 cells at concentration of 1 mM; format: functional; settings: Cricetulus griseus, read-out: Survival
V79 [2] = experiment: The cytotoxicity in vitro against Chinese hamster V-79 cells at concentration of 0.1 mM; format: functional; settings: Cricetulus griseus, read-out: Survival
Mus musculus [3] = experiment: %Survival of compound was measured using CD2F1 male mice in group of ten at 239 mg/kg dose on day 30; format: functional; settings: 720 h
V79 [4] = experiment: The cytotoxicity in vitro against Chinese hamster V-79 cells at concentration of 0.5 mM; format: functional; settings: Cricetulus griseus, read-out: Survival
V79 [5] = experiment: The in vitro radioprotective effect measured against Chinese hamster V-79 cells at concentration of 0.1 mM; format: functional, Cricetulus griseus
Mus musculus [6] = experiment: Mean survival time of compound was measured using CD2F1 male mice in group of ten at 239 mg/kg dose on day 30; format: functional
Mus musculus [7] = experiment: The percent increase in life span was measured using CD2F1 male mice at 239 mg/kg dose; format: functional
Mus musculus [8] = experiment: Mean survival time of treated group(T) and Mean survival time of control group(C) was measured using CD2F1 male mice at 239 mg/kg dose; format: functional
Mus musculus [9] = experiment: Mean survival time of compound was measured using CD2F1 male mice in group of ten at 469 mg/kg dose on day 30; format: functional
[10] = Mean survival time of treated group(T) and Mean survival time of control group(C) was measured using CD2F1 male mice at 469 mg/kg dose; format: functional
Mus musculus [11] = experiment: The percent increase in life span was measured using CD2F1 male mice at 469 mg/kg dose; format: functional
Mus musculus [12] = experiment: %Survival of compound was measured using CD2F1 male mice in group of ten at 469 mg/kg dose on day 30; format: functional; settings: 720 h
V79 [13] = experiment: The cytotoxicity in vitro against Chinese hamster V-79 cells at concentration of 0.1 mM; NA= Not active; format: functional, cell-based; settings: Cricetulus griseus
[14] = Mean survival time of treated group(T) and Mean survival time of control group(C) was measured using CD2F1 male mice at 400 mg/kg dose; format: functional
Mus musculus [15] = experiment: %Survival of compound was measured using CD2F1 male mice in group of ten at 400 mg/kg dose on day 30; format: functional; settings: 720 h
Mus musculus [16] = experiment: Mean survival time of compound was measured using CD2F1 male mice in group of ten at 400 mg/kg dose on day 30; format: functional
Mus musculus [17] = experiment: The percent increase in life span was measured using CD2F1 male mice at 400 mg/kg dose; format: functional
V79 [18] = experiment: The cytotoxicity in vitro against Chinese hamster V-79 cells at concentration of 0.5 mM; NA= Not active; format: functional, cell-based; settings: Cricetulus griseus

SMILES	viability at 1000 µM (V79 [1])	viability at 100 µM (V79 [2])	survival at 239 mg/kg (Mus musculus [3])	viability at 500 µM (V79 [4])	DMF (V79 [5])	MST (Mus musculus [6])	ILS at 239 mg/kg (Mus musculus [7])	Ratio (Mus musculus [8])	MST (Mus musculus [9])	Ratio [10]	ILS at 469 mg/kg (Mus musculus [11])	survival at 469 mg/kg (Mus musculus [12])	Survival (V79 [13])	Ratio [14]	survival at 400 mg/kg (Mus musculus [15])	MST (Mus musculus [16])	ILS at 400 mg/kg (Mus musculus [17])	Survival (V79 [18])
NCCCNCCSP(=O)(O)O [AMIFOSTINE]	0%	100%	80%	2%	1.4	27	130%	2.63	–	–	–	–	–	–	–	–	–	–
CNCCCNCCCSP(=O)(O)O	90%	93%	–	99%	1.5	–	–	–	20	1.94	18%	60%	–	–	–	–	–	–
CNCCCNCCCSP(=O)(Oc1ccc(Cl)cc1)SCCCNCCCNC	94%	–	–	–	1.65	–	–	–	–	–	–	–	inactive	2.26	50%	23	73%	inactive
